{"source": "PubChem BioAssay (NCI)", "test_in_all_cases": "DTP human tumour cell line panel, 48 h", "key": {"A498 renal": {"test_system": "A498 renal"}, "HL-60(TB) leukemia": {"test_system": "HL-60(TB) leukemia"}, "U251 CNS": {"test_system": "U251 CNS"}, "SNB-19 CNS": {"test_system": "SNB-19 CNS"}, "RXF 393 renal": {"test_system": "RXF 393 renal"}, "SNB-75 CNS": {"test_system": "SNB-75 CNS"}, "M14 melanoma": {"test_system": "M14 melanoma"}, "SN12C renal": {"test_system": "SN12C renal"}, "SF-268 CNS": {"test_system": "SF-268 CNS"}, "SK-OV-3 ovarian": {"test_system": "SK-OV-3 ovarian"}, "KM12 colon": {"test_system": "KM12 colon"}, "IGROV1 ovarian": {"test_system": "IGROV1 ovarian"}, "NCI-H522 lung": {"test_system": "NCI-H522 lung"}, "MOLT-4 leukemia": {"test_system": "MOLT-4 leukemia"}, "COLO 205 colon": {"test_system": "COLO 205 colon"}, "PC-3 prostate": {"test_system": "PC-3 prostate"}, "T-47D breast": {"test_system": "T-47D breast"}, "OVCAR-5 ovarian": {"test_system": "OVCAR-5 ovarian"}, "NCI-H226 lung": {"test_system": "NCI-H226 lung"}, "HOP-92 NSCLC": {"test_system": "HOP-92 NSCLC"}, "SK-MEL-2 melanoma": {"test_system": "SK-MEL-2 melanoma"}, "OVCAR-8 ovarian": {"test_system": "OVCAR-8 ovarian"}, "ACHN renal": {"test_system": "ACHN renal"}, "UACC-257 melanoma": {"test_system": "UACC-257 melanoma"}, "NCI-H23 lung": {"test_system": "NCI-H23 lung"}, "BT-549 breast": {"test_system": "BT-549 breast"}, "OVCAR-4 ovarian": {"test_system": "OVCAR-4 ovarian"}}, "note": "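These data come from cells grown in 96-well plates and exposed to compound for 48 hours at five concentrations. Here, GI50 denotes the concentration required for 50% inhibition of growth. TGI is the concentration that stops growth completely.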", "data": [{"smiles": "CN1CCN(Cc2ccc(NC(=O)c3cccc(C#Cc4cnc(N)c5ncccc45)c3F)cc2C(F)(F)F)CC1", "values": [{"measurement": "GI50", "setting": "A498 renal", "result": 1.59, "unit": "µM"}, {"measurement": "TGI", "setting": "A498 renal", "result": 4.61, "unit": "µM"}, {"measurement": "GI50", "setting": "HL-60(TB) leukemia", "result": 1.68, "unit": "µM"}, {"measurement": "TGI", "setting": "HL-60(TB) leukemia", "result": 18.7, "unit": "µM"}, {"measurement": "GI50", "setting": "U251 CNS", "result": 0.741, "unit": "µM"}, {"measurement": "TGI", "setting": "U251 CNS", "result": 1.43, "unit": "µM"}, {"measurement": "GI50", "setting": "SNB-19 CNS", "result": 1.41, "unit": "µM"}, {"measurement": "TGI", "setting": "SNB-19 CNS", "result": 3.72, "unit": "µM"}, {"measurement": "GI50", "setting": "RXF 393 renal", "result": 0.613, "unit": "µM"}, {"measurement": "TGI", "setting": "RXF 393 renal", "result": 1.3, "unit": "µM"}, {"measurement": "GI50", "setting": "SNB-75 CNS", "result": 1.59, "unit": "µM"}, {"measurement": "TGI", "setting": "SNB-75 CNS", "result": 7.48, "unit": "µM"}, {"measurement": "GI50", "setting": "M14 melanoma", "result": 0.59, "unit": "µM"}, {"measurement": "TGI", "setting": "M14 melanoma", "result": 1.37, "unit": "µM"}, {"measurement": "GI50", "setting": "SN12C renal", "result": 0.817, "unit": "µM"}, {"measurement": "TGI", "setting": "SN12C renal", "result": 1.59, "unit": "µM"}, {"measurement": "GI50", "setting": "SF-268 CNS", "result": 5.13, "unit": "µM"}, {"measurement": "TGI", "setting": "SF-268 CNS", "result": 14.7, "unit": "µM"}, {"measurement": "GI50", "setting": "SK-OV-3 ovarian", "result": 1.39, "unit": "µM"}, {"measurement": "TGI", "setting": "SK-OV-3 ovarian", "result": 7.46, "unit": "µM"}, {"measurement": "GI50", "setting": "KM12 colon", "result": 0.332, "unit": "µM"}, {"measurement": "TGI", "setting": "KM12 colon", "result": 6.51, "unit": "µM"}, {"measurement": "GI50", "setting": "IGROV1 ovarian", "result": 0.476, "unit": "µM"}, {"measurement": "TGI", "setting": "IGROV1 ovarian", "result": 1.31, "unit": "µM"}, {"measurement": "GI50", "setting": "NCI-H522 lung", "result": 0.587, "unit": "µM"}, {"measurement": "TGI", "setting": "NCI-H522 lung", "result": 1.47, "unit": "µM"}, {"measurement": "GI50", "setting": "MOLT-4 leukemia", "result": 0.77, "unit": "µM"}, {"measurement": "TGI", "setting": "MOLT-4 leukemia", "result": 3.06, "unit": "µM"}, {"measurement": "GI50", "setting": "COLO 205 colon", "result": 1.17, "unit": "µM"}, {"measurement": "TGI", "setting": "COLO 205 colon", "result": 6.07, "unit": "µM"}, {"measurement": "GI50", "setting": "PC-3 prostate", "result": 2.02, "unit": "µM"}, {"measurement": "TGI", "setting": "PC-3 prostate", "result": 9.56, "unit": "µM"}, {"measurement": "GI50", "setting": "T-47D breast", "result": 5.78, "unit": "µM"}, {"measurement": "TGI", "setting": "T-47D breast", "result": 14.8, "unit": "µM"}, {"measurement": "GI50", "setting": "OVCAR-5 ovarian", "result": 0.722, "unit": "µM"}, {"measurement": "TGI", "setting": "OVCAR-5 ovarian", "result": 1.52, "unit": "µM"}, {"measurement": "GI50", "setting": "NCI-H226 lung", "result": 0.647, "unit": "µM"}, {"measurement": "TGI", "setting": "NCI-H226 lung", "result": 1.97, "unit": "µM"}, {"measurement": "GI50", "setting": "HOP-92 NSCLC", "result": 1.27, "unit": "µM"}, {"measurement": "TGI", "setting": "HOP-92 NSCLC", "result": 4.63, "unit": "µM"}, {"measurement": "GI50", "setting": "SK-MEL-2 melanoma", "result": 0.522, "unit": "µM"}, {"measurement": "TGI", "setting": "SK-MEL-2 melanoma", "result": 1.94, "unit": "µM"}, {"measurement": "GI50", "setting": "OVCAR-8 ovarian", "result": 0.828, "unit": "µM"}, {"measurement": "TGI", "setting": "OVCAR-8 ovarian", "result": 1.78, "unit": "µM"}, {"measurement": "GI50", "setting": "ACHN renal", "result": 0.477, "unit": "µM"}, {"measurement": "TGI", "setting": "ACHN renal", "result": 1.09, "unit": "µM"}, {"measurement": "GI50", "setting": "UACC-257 melanoma", "result": 0.828, "unit": "µM"}, {"measurement": "TGI", "setting": "UACC-257 melanoma", "result": 1.65, "unit": "µM"}, {"measurement": "GI50", "setting": "NCI-H23 lung", "result": 3.99, "unit": "µM"}, {"measurement": "TGI", "setting": "NCI-H23 lung", "result": 16.4, "unit": "µM"}, {"measurement": "GI50", "setting": "BT-549 breast", "result": 3.1, "unit": "µM"}, {"measurement": "TGI", "setting": "BT-549 breast", "result": 11, "unit": "µM"}, {"measurement": "GI50", "setting": "OVCAR-4 ovarian", "result": 0.735, "unit": "µM"}, {"measurement": "TGI", "setting": "OVCAR-4 ovarian", "result": 1.59, "unit": "µM"}]}]}
